Species on record: Rattus norvegicus
Experiment: DrugMatrix - Regimen: Daily Repeat
Assay type: toxicity, organism-based, Sprague-Dawley
Set-up: regimen Daily Repeat, gender Male, age 6-8 weeks
Conditions: in vivo, iv, vehicle 100 % SALINE; for ABSOLUTE BASOPHIL / ABSOLUTE EOSINOPHIL / ABSOLUTE LYMPHOCYTE / ABSOLUTE MONOCYTE / ABSOLUTE SEGMENTED NEUTROPHIL / BASOPHIL / EOSINOPHIL / ERYTHROCYTE COUNT / HEMATOCRIT / HEMOGLOBIN / LEUKOCYTE COUNT / LYMPHOCYTE / MEAN CORPUSCULAR HEMOGLOBIN / MEAN CORPUSCULAR HEMOGLOBIN CONCENTRATION / MEAN CORPUSCULAR VOLUME / MONOCYTE / NEUTROPHIL / NUCLEATED RED BLOOD CELLS / PLATELET COUNT: tissue Blood; for ALANINE AMINOTRANSFERASE / ALBUMIN / ALKALINE PHOSPHATASE / ASPARTATE AMINOTRANSFERASE / BLOOD UREA NITROGEN / CARBON DIOXIDE / CHLORIDE / CHOLESTEROL / CREATINE PHOSPHOKINASE / CREATININE / GLUCOSE / LACTATE DEHYDROGENASE / LIPASE / PHOSPHORUS / POTASSIUM / SODIUM / TOTAL BILIRUBIN / TOTAL PROTEIN / URIC ACID: tissue Plasma
[1] = 0 mg/kg, 72 h, dose level Control, time 3 day
[2] = 0 mg/kg, 120 h, dose level Control, time 5 day
[3] = 10 mg/kg, 72 h, dose level Low, time 3 day

SMILES: O=C(O)P(=O)(O)O [FOSCARNET]
- ABSOLUTE BASOPHIL [1]: 0 CELLS/uL
- ABSOLUTE EOSINOPHIL [1]: 247.67 CELLS/uL
- ABSOLUTE LYMPHOCYTE [1]: 13190.83 CELLS/uL
- ABSOLUTE MONOCYTE [1]: 307.67 CELLS/uL
- ABSOLUTE SEGMENTED NEUTROPHIL [1]: 1220.5 CELLS/uL
- BASOPHIL [1]: 0%
- EOSINOPHIL [1]: 1.67%
- ERYTHROCYTE COUNT [1]: 5.47 x10E6/uL
- HEMATOCRIT [1]: 33.98%
- HEMOGLOBIN [1]: 12.65 G/DL
- LEUKOCYTE COUNT [1]: 14.97 x10E3/uL
- LYMPHOCYTE [1]: 88.17%
- MEAN CORPUSCULAR HEMOGLOBIN [1]: 23.17 pg
- MEAN CORPUSCULAR HEMOGLOBIN CONCENTRATION [1]: 37.23 G/DL
- MEAN CORPUSCULAR VOLUME [1]: 62.25 fL
- MONOCYTE [1]: 2%
- NEUTROPHIL [1]: 8.17%
- NUCLEATED RED BLOOD CELLS [1]: 0 /100WBC
- PLATELET COUNT [1]: 1307.17 x10E3/uL
- ALANINE AMINOTRANSFERASE [1]: 39.67 u/L
- ALBUMIN [1]: 4.08 G/DL
- ALKALINE PHOSPHATASE [1]: 383.17 u/L
- ASPARTATE AMINOTRANSFERASE [1]: 88.83 u/L
- BLOOD UREA NITROGEN [1]: 18.5 mg/dL
- CARBON DIOXIDE [1]: 27.5 mmol/L
- CHLORIDE [1]: 103 MEQ/L
- CHOLESTEROL [1]: 67.33 mg/dL
- CREATINE PHOSPHOKINASE [1]: 414.67 u/L
- CREATININE [1]: 0.19 mg/dL
- GLUCOSE [1]: 149.33 mg/dL
- LACTATE DEHYDROGENASE [1]: 536.83 u/L
- LIPASE [1]: 8.83 u/L
- PHOSPHORUS [1]: 11.13 mg/dL
- POTASSIUM [1]: 6.23 MEQ/L
- SODIUM [1]: 144.42 MEQ/L
- TOTAL BILIRUBIN [1]: 0.18 mg/dL
- TOTAL PROTEIN [1]: 5.57 G/DL
- URIC ACID [1]: 1.23 mg/dL
- ABSOLUTE BASOPHIL [2]: 0 CELLS/uL
- ABSOLUTE EOSINOPHIL [2]: 158.83 CELLS/uL
- ABSOLUTE LYMPHOCYTE [2]: 13517.17 CELLS/uL
- ABSOLUTE MONOCYTE [2]: 352.67 CELLS/uL
- ABSOLUTE SEGMENTED NEUTROPHIL [2]: 1104.67 CELLS/uL
- BASOPHIL [2]: 0%
- EOSINOPHIL [2]: 1%
- ERYTHROCYTE COUNT [2]: 5.73 x10E6/uL
- HEMATOCRIT [2]: 36.85%
- HEMOGLOBIN [2]: 13.67 G/DL
- LEUKOCYTE COUNT [2]: 15.13 x10E3/uL
- LYMPHOCYTE [2]: 89.5%
- MEAN CORPUSCULAR HEMOGLOBIN [2]: 23.87 pg
- MEAN CORPUSCULAR HEMOGLOBIN CONCENTRATION [2]: 37.1 G/DL
- MEAN CORPUSCULAR VOLUME [2]: 64.33 fL
- MONOCYTE [2]: 2.33%
- NEUTROPHIL [2]: 7.17%
- NUCLEATED RED BLOOD CELLS [2]: 0.17 /100WBC
- PLATELET COUNT [2]: 1266 x10E3/uL
- ALANINE AMINOTRANSFERASE [2]: 49.17 u/L
- ALBUMIN [2]: 4.22 G/DL
- ALKALINE PHOSPHATASE [2]: 352.67 u/L
- ASPARTATE AMINOTRANSFERASE [2]: 95.17 u/L
- BLOOD UREA NITROGEN [2]: 18.83 mg/dL
- CARBON DIOXIDE [2]: 25.67 mmol/L
- CHLORIDE [2]: 102.67 MEQ/L
- CHOLESTEROL [2]: 66.83 mg/dL
- CREATINE PHOSPHOKINASE [2]: 550.33 u/L
- CREATININE [2]: 0.23 mg/dL
- GLUCOSE [2]: 186.17 mg/dL
- LACTATE DEHYDROGENASE [2]: 471.33 u/L
- LIPASE [2]: 8.67 u/L
- PHOSPHORUS [2]: 12.3 mg/dL
- POTASSIUM [2]: 6.35 MEQ/L
- SODIUM [2]: 143.57 MEQ/L
- TOTAL BILIRUBIN [2]: 0.18 mg/dL
- TOTAL PROTEIN [2]: 6.05 G/DL
- URIC ACID [2]: 2 mg/dL
- ABSOLUTE BASOPHIL [3]: 0 CELLS/uL
- ABSOLUTE EOSINOPHIL [3]: 119 CELLS/uL
- ABSOLUTE LYMPHOCYTE [3]: 13526 CELLS/uL
- ABSOLUTE MONOCYTE [3]: 339.33 CELLS/uL
- ABSOLUTE SEGMENTED NEUTROPHIL [3]: 1849 CELLS/uL
- BASOPHIL [3]: 0%
- EOSINOPHIL [3]: 1%
- ERYTHROCYTE COUNT [3]: 5.59 x10E6/uL
- HEMATOCRIT [3]: 35.27%
- HEMOGLOBIN [3]: 13.4 G/DL
- LEUKOCYTE COUNT [3]: 15.83 x10E3/uL
- LYMPHOCYTE [3]: 86%
- MEAN CORPUSCULAR HEMOGLOBIN [3]: 24.03 pg
- MEAN CORPUSCULAR HEMOGLOBIN CONCENTRATION [3]: 38 G/DL
- MEAN CORPUSCULAR VOLUME [3]: 63.2 fL
- MONOCYTE [3]: 2%
- NEUTROPHIL [3]: 11%
- NUCLEATED RED BLOOD CELLS [3]: 0.33 /100WBC
- PLATELET COUNT [3]: 1244.67 x10E3/uL
- ALANINE AMINOTRANSFERASE [3]: 51.33 u/L
- ALBUMIN [3]: 4.37 G/DL
- ALKALINE PHOSPHATASE [3]: 431.67 u/L
- ASPARTATE AMINOTRANSFERASE [3]: 102 u/L
- BLOOD UREA NITROGEN [3]: 16.67 mg/dL
- CARBON DIOXIDE [3]: 26.67 mmol/L
- CHLORIDE [3]: 102 MEQ/L
- CHOLESTEROL [3]: 79.67 mg/dL
- CREATINE PHOSPHOKINASE [3]: 558.33 u/L
- CREATININE [3]: 0.23 mg/dL
- GLUCOSE [3]: 150.33 mg/dL
- LACTATE DEHYDROGENASE [3]: 837 u/L
- LIPASE [3]: 9.33 u/L
- PHOSPHORUS [3]: 11.7 mg/dL
- POTASSIUM [3]: 6.65 MEQ/L
- SODIUM [3]: 144.07 MEQ/L
- TOTAL BILIRUBIN [3]: 0.23 mg/dL
- TOTAL PROTEIN [3]: 5.83 G/DL
- URIC ACID [3]: 1.27 mg/dL
